Results published in PubChem BioAssay AID179 (DTP/NCI, 2004).
Active and inactive are the calls of the source.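 How the source made its calls: active means compounds giving half or more protection of infected cells from virus-caused growth loss, again on retest; inactive means the rest.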

System: CEM cells HIV-1 protection, formazan growth assay
Test: NCI AIDS Antiviral Assay
Details: for IC50: measured here: growth of uninfected CEM cells
Procedure, shortened: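 Category rules: moderately active means at least 50% protection on retest, and confirmed active means 100% protection reproducibly. The underlying data came from a formazan growth assay in HIV-1-infected CEM cells.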

Row | SMILES | EC50 [µM] | IC50 [µM] | outcome
1 | Cc1cc2ccc(=O)oc2c2c1OC(C)(C)[C@H](OC(=O)C13CCC(C)(C(=O)O1)C3(C)C)[C@@H]2OC(=O)C12CCC(C)(C(=O)O1)C2(C)C (some centres undefined) | 0.562 | 24 | –
2 | Nc1nnc(-c2ccccc2O)o1 | > 200 | 110 | –
3 | Cc1nnc2nc(N)[nH]n2c1=O | > 200 | > 200 | –
4 | COC(=O)c1cc(C)ccc1CC(Cc1cccc(C)c1)C(=O)OC (centres undefined) | > 200 | > 200 | –
5 | c1ccc(-c2nnc(-c3nsc4ccccc34)o2)cc1 | > 18.6 | > 18.6 | –
6 | O=C1NC(N2CCCC(CO)C2)=N/C1=C\c1cccs1 (centres undefined) | > 200 | > 200 | –
7 | S=C(NC/C(Br)=C/Br)Nc1cccc2ccccc12 | > 200 | 36.3 | –
8 | CCOC(=O)c1c(N)ssc1=S | 87.1 | 158 | –
9 | O=C1/C(=C/c2ccccc2[N+](=O)[O-])CCCc2ccccc21 | > 200 | 34.7 | –
10 | COc1ccccc1/C=C(\C#N)C(=O)c1ccccc1 | > 20 | > 20 | –
11 | C=C[C@@]1(C)CC2CC[C@]3(C)C(C)=CC(=O)CC3[C@]2(C)CC1O (some centres undefined) | > 200 | 107 | –
12 | N#Cc1ccc(-c2nc3c(N)ncnc3o2)cc1 | > 200 | > 200 | –
13 | Brc1c(OCc2ccccc2)ccc2ccccc12 | > 200 | 191 | –
14 | CCCC/C=C(/C1OC(=O)N2CCC[C@H]2C1(C)C)[Si](C)(C)C (some centres undefined) | > 6.17 | > 6.17 | –
15 | CCCCCC[n+]1noc(N)c1-c1ccc(-c2c(N)on[n+]2CCCCCC)cc1 | > 200 | 2.57 | –
16 | C=C1CC(COc2ccc3c(C)c(C)c(=O)oc3c2C)(c2ccccc2)OC1=O (centres undefined) | > 200 | 0.933 | –
17 | N#Cc1c(N2CCCC2)ncn(-c2ccccc2)c1=O | > 200 | > 200 | –
18 | NC(N)=NCCCC(NCc1c2ccccc2[n+]([O-])c2ccccc12)C(=O)O (centres undefined) | – | – | inactive
19 | O=c1[nH][n+]([O-])cc2c(C(O)=C(O)O)c[nH]c12 | – | – | inactive
20 | OCCCN=C1N=C(Cl)/C(=C\c2ccccc2)N1 | > 200 | > 200 | –
21 | CCOC(=O)/C(F)=C/c1cccc(C)c1 | > 126 | > 126 | –
22 | O=S1(=O)Cc2ccc3c4c2-c2c(ccc5ccc(c-4c25)CS(=O)(=O)C3)C1 | > 200 | 17 | –
23 | CC1=NC(=Cc2cc(Br)cc(Br)c2)C(=O)N1n1c(-c2ccccc2)nc2ccccc2c1=O | > 200 | 87.1 | –

Row | SMILES | EC50 [µM] | IC50 [µM] | outcome
24 | O=C1CCCC1(CCSc1ccccc1)C(CCCl)Sc1ccccc1 (centres undefined) | > 8.91 | > 8.91 | –
25 | O=[N+]([O-])C1(CO)COC(CCc2ccccc2)OC1 (centres undefined) | – | – | inactive
26 | COC(=O)C1=C(C(=O)OC)C(OO)(c2ccccc2)OC1=O (centres undefined) | > 200 | > 200 | –
27 | C=CCNC(=O)NC(=O)CSC1=NNC2(C(=O)N1)c1ccccc1-c1ccccc12 | > 200 | 29.5 | –
28 | O=S1CCS(=O)CCS(=O)CC1 (centres undefined) | > 16.6 | > 16.6 | –
29 | CCN(CC)CCOc1ccc(/C=C(\C#N)c2ccc(OC)cc2)cc1 | > 200 | 2.14 | –
30 | Cc1c(O)c2ccccc2n(C)c1=O | > 200 | > 200 | –
31 | O=C(Nc1c[nH]c(=O)[nH]c1=O)c1ccc(S(=O)(=O)F)cc1 | > 151 | 85.1 | –
32 | COC(=O)c1cc(C#N)[nH]c1-c1cccs1 | > 200 | 40.7 | –
33 | OCc1cc2c(cn1)[nH]c1ccc(NCc3ccccc3)cc12 | – | – | inactive
34 | CCCCCCCCCCn1nnc2c(=O)[nH]c(N)nc21 | > 200 | 52.5 | –
35 | COc1ccc(NS(=O)c2cccc(C)c2)cc1 (centres undefined) | > 200 | 11.2 | –
36 | COc1c(OC)c(O)c2c(=O)c(OC)c(-c3ccc4c(c3)OCO4)oc2c1O | > 200 | 74.1 | –
37 | CC1(O)OC(=O)C2=C1CCC1C2CCC2(C)C(O)CCC12 (centres undefined) | > 200 | > 200 | –
38 | CC1(C)COC(c2ccc(C(=O)c3ccc(Cl)cc3)cc2)=N1 | > 200 | 81.3 | –
39 | O=C1NC(N2CCOCC2)=N/C1=C\c1ccco1 | > 200 | > 200 | –
40 | CCCCCCCCCCCCCCCC(=O)OCCOCCOCCOCc1ccccc1 | – | – | inactive
41 | CN(C)/C=C/c1c2c(nc3ccccc13)C(=O)c1ccccc1C2=O | > 100 | 2.24 | –
42 | COc1cc(C2C3=C(COC3=O)OC(C)(C)Oc3cc4c(cc32)OCO4)cc(OC)c1OC (centres undefined) | > 2 | 0.355 | –
43 | COC1=C(CC(C)=O)C(=O)c2c(O)c(CO)cc(O)c2C1=O | – | – | inactive
44 | COc1cc2nc(NCCCCCNC(=O)c3ccco3)nc(N)c2cc1OC | > 575 | 35.5 | –
45 | O=C(c1ccccc1)c1c2ccccn2c2cccc[n+]12 | > 200 | 53.7 | –
